The text below walks through data of US20050250713A1, “11,12-Cyclic thiocarbamate macrolide antibacterial agents” (priority 2004, published 2005).

What all share (assay): MIC, microdilution broth method (NCCLS)
Common to all, as to assay type: cell-based
(In general: Dilution methods test growth across graded concentrations, often in twofold steps.)

The test system of assay [1] is E. faecalis ATCC29212. To be noted: Enterococcus faecalis, cation adjusted Mueller-Hinton broth, 16-20 hours, read-out: MIC Values, B: E. faecalis ATCC29212. How it is done:
(§1) Minimum inhibitory concentration (MIC) has been an indicator of in vitro antibacterial activity widely used in the art. The in vitro antimicrobial activity of the compounds was determined by the microdilution broth method following the test method from the National Committee for Clinical Laboratory Standards (NCCLS). This method is described in the NCCLS Document M7-A4, Vol. 17, No.2, “Methods for Dilution Antimicrobial Susceptibility Test for Bacteria that Grow Aerobically—Fourth Edition”, which is incorporated herein by reference. In this method two-fold serial dilutions of drug in cation adjusted Mueller-Hinton broth are added to wells in microdilution trays. The test organisms are prepared by adjusting the turbidity of actively growing broth cultures so that the final concentration of test organism after it is added to the wells is approximately 5×10^4 CFU/well. Following inoculation of the microdilution trays, the trays are incubated at 35 °C for 16-20 hours and then read. […] The amount of growth in the wells containing the test compound is compared with the amount of growth in the growth-control wells (no test compound) used in each tray. As set forth in Table 1, compounds of the present invention were tested against a variety of Gram positive and Gram negative pathogenic bacteria resulting in a range of activities depending on the organism tested.

Assay [2] deals with H. influenzae ATCC49247. To be noted: Haemophilus influenzae, cation adjusted Mueller-Hinton broth, 16-20 hours, read-out: MIC Values, D: H. influenzae ATCC49247. How it is done:
as §1

Assay [3] has as its system S. aureus ATCC29213. The following applies: Staphylococcus aureus, cation adjusted Mueller-Hinton broth, 16-20 hours. How it is done:
as §1

In assay [4] the test system is S. pneumoniae ATCC49619. To be noted: Streptococcus pneumoniae, cation adjusted Mueller-Hinton broth, 16-20 hours, read-out: MIC Values, C: S. pneumoniae ATCC49619. How it is done:
as §1

In brackets after ≈: the same amount, converted by molar mass.

As to `CC[C@H]1OC(=O)[C@H](C)C(=O)[C@H](C)[C@@H](O[C@@H]2O[C@H](C)C[C@H](N(C)C)[C@H]2O)[C@](C)(OC(=O)OC/C=C/c2ccc(Br)nc2)C[C@@H](C)C(=O)[C@H](C)[C@H]2NC(=S)O[C@@]21C` [Compound 10], the MIC in assay [1] was 0.12 µg/mL (≈ 0.14 µM); in assay [2] it was 2 µg/mL (≈ 2.34 µM); in assay [3], 0.25 µg/mL (≈ 0.292 µM); in assay [4], no more than 0.015 µg/mL.
For the compound `CC[C@H]1OC(=O)[C@H](C)C(=O)[C@H](C)[C@@H](O[C@@H]2O[C@H](C)C[C@H](N(C)C)[C@H]2O)[C@](C)(OC(=O)NC/C=C/c2ccc(-c3cccnn3)cc2)C[C@@H](C)C(=O)[C@H](C)[C@H]2NC(=S)O[C@@]21C` [Compound 4], the MIC was determined as 0.25 µg/mL (≈ 0.293 µM) in assay [1], 2 µg/mL (≈ 2.35 µM) in assay [2], 0.5 µg/mL (≈ 0.587 µM) in assay [3] and 0.12 µg/mL (≈ 0.141 µM) in assay [4].
Regarding `CC[C@H]1OC(=O)[C@H](C)C(=O)[C@H](C)[C@@H](O[C@@H]2O[C@H](C)C[C@H](N(C)C)[C@H]2O)[C@](C)(OC(=O)NC/C=C/c2cnc(C3CC3)nc2)C[C@@H](C)C(=O)[C@H](C)[C@H]2NC(=S)O[C@@]21C` [Compound 7], the MIC in assay [1] was 0.06 µg/mL (≈ 0.0735 µM); in assay [2], 1 µg/mL (≈ 1.23 µM); in assay [3], 0.5 µg/mL (≈ 0.613 µM); in assay [4] it was no more than 0.015 µg/mL.
Take `CC[C@H]1OC(=O)[C@H](C)C(=O)[C@H](C)[C@@H](O[C@@H]2O[C@H](C)C[C@H](N(C)C)[C@H]2O)[C@](C)(OC(=O)NC/C=C/c2ccc(Br)nc2)C[C@@H](C)C(=O)[C@H](C)[C@H]2NC(=S)O[C@@]21C` [Compound 6]: the MIC in assay [1] is 0.06 µg/mL (≈ 0.0703 µM); in assay [2], 1 µg/mL (≈ 1.17 µM); in assay [3], 0.5 µg/mL (≈ 0.586 µM); in assay [4], no more than 0.015 µg/mL.
`CC[C@H]1OC(=O)[C@H](C)C(=O)[C@H](C)[C@@H](O[C@@H]2O[C@H](C)C[C@H](N(C)C)[C@H]2O)[C@](C)(OC(=O)OC/C=C/c2cnc3ccccc3c2)C[C@@H](C)C(=O)[C@H](C)[C@H]2NC(=S)O[C@@]21C` [Compound 9]: the MIC amounted to 0.06 µg/mL (≈ 0.0726 µM) in assay [1], 2 µg/mL (≈ 2.42 µM) in assay [2] and 0.12 µg/mL (≈ 0.145 µM) in assay [3].
As for `CC[C@H]1OC(=O)[C@H](C)C(=O)[C@H](C)[C@@H](O[C@@H]2O[C@H](C)C[C@H](N(C)C)[C@H]2O)[C@](C)(OC(=O)NC/C(F)=C/c2cnc3ccccc3c2)C[C@@H](C)C(=O)[C@H](C)[C@H]2NC(=S)O[C@@]21C` [Compound 12], the MIC in assay [1] was 0.12 µg/mL (≈ 0.142 µM); in assay [2], 1 µg/mL (≈ 1.19 µM); in assay [3], 0.5 µg/mL (≈ 0.593 µM); in assay [4], 0.03 µg/mL (≈ 0.0356 µM).
The like results for `CC[C@H]1OC(=O)[C@H](C)C(=O)[C@H](C)[C@@H](O[C@@H]2O[C@H](C)C[C@H](N(C)C)[C@H]2O)[C@](C)(OC(=O)NC/C=C/c2cnc3ccccc3c2)C[C@@H](C)C(=O)[C@H](C)[C@H]2NC(=S)O[C@@]21C` [Compound 5] were, in that order, 0.06 µg/mL (≈ 0.0727 µM), 1 µg/mL (≈ 1.21 µM), 0.25 µg/mL (≈ 0.303 µM) and no more than 0.015 µg/mL.
